# Measured values reported in article PMC11003488 (Journal of Enzyme Inhibition and Medicinal Chemistry, 2023).
# Experiments:
# RXF 393 = experiment: NCI-60 SRB growth inhibition, one-dose and five-dose; type: cell-based; conditions: Homo sapiens
# SK-MEL-2 = experiment: as above; type: cell-based; conditions: Homo sapiens, SK-MEL-2, read-out: percent growth inhibition
# 786-0 = experiment: as above; type: cell-based; conditions: Homo sapiens
# MALME-3M = experiment: as above; type: cell-based; conditions: Homo sapiens
# SF-295 = experiment: as above; type: cell-based; conditions: Homo sapiens
# BT-549 = experiment: as above; type: cell-based; conditions: Homo sapiens
# HOP-62 = experiment: as above; type: cell-based; conditions: Homo sapiens
# A498 = experiment: as above; type: cell-based; conditions: Homo sapiens
# OVCAR-4 = experiment: as above; type: cell-based; conditions: Homo sapiens
# SK-MEL-5 = experiment: as above; type: cell-based; conditions: Homo sapiens
# A549/ATCC = experiment: as above; type: cell-based; conditions: Homo sapiens
# K-562 = experiment: as above; type: cell-based; conditions: Homo sapiens
# HCT-15 = experiment: as above; type: cell-based; conditions: Homo sapiens
# IGROV1 = experiment: as above; type: cell-based; conditions: Homo sapiens
# SF-268 = experiment: as above; type: cell-based; conditions: Homo sapiens
# SF-539 = experiment: as above; type: cell-based; conditions: Homo sapiens
# NCI/ADR-RES = experiment: as above; type: cell-based; conditions: Homo sapiens
# OVCAR-3 = experiment: as above; type: cell-based; conditions: Homo sapiens
# CCRF-CEM = experiment: as above; type: cell-based; conditions: Homo sapiens
# OVCAR-5 = experiment: as above; type: cell-based; conditions: Homo sapiens
# HCC-2998 = experiment: as above; type: cell-based; conditions: Homo sapiens
# MDA-MB-435 = experiment: as above; type: cell-based; conditions: Homo sapiens
# UACC-62 = experiment: as above; type: cell-based; conditions: Homo sapiens
# HOP-92 = experiment: as above; type: cell-based; conditions: Homo sapiens
# COLO 205 = experiment: as above; type: cell-based; conditions: Homo sapiens
# NCI-H460 = experiment: as above; type: cell-based; conditions: Homo sapiens
# HT29 = experiment: as above; type: cell-based; conditions: Homo sapiens
# [1] = test system: NCI 60-cell line panel (full panel); experiment: NCI-60 SRB growth inhibition, full panel mean / MG-MID; type: cell-based, human
# CAKI-1 = experiment: NCI-60 SRB growth inhibition, one-dose and five-dose; type: cell-based; conditions: Homo sapiens
# DU-145 = experiment: as above; type: cell-based; conditions: Homo sapiens
# HCT-116 = experiment: as above; type: cell-based; conditions: Homo sapiens
# HS 578 T = experiment: as above; type: cell-based; conditions: Homo sapiens
# MCF7 = experiment: as above; type: cell-based; conditions: Homo sapiens
# SR = experiment: as above; type: cell-based; conditions: Homo sapiens
# NCI-H226 = experiment: as above; type: cell-based; conditions: Homo sapiens
# SNB-75 = experiment: as above; type: cell-based; conditions: Homo sapiens
# T-47D = experiment: as above; type: cell-based; conditions: Homo sapiens, T47D
# LOX IMVI = experiment: as above; type: cell-based; conditions: Homo sapiens
# SNB-19 = experiment: as above; type: cell-based; conditions: Homo sapiens
# ACHN = experiment: as above; type: cell-based; conditions: Homo sapiens
# NCI-H522 = experiment: as above; type: cell-based; conditions: Homo sapiens
# NCI-H322M = experiment: as above; type: cell-based; conditions: Homo sapiens
# [2] = read-out: percent growth inhibition
structure (smiles),measurement,setting,value
"CC(=O)Nc1ccc(/C=C/C(=O)c2cccc(NCc3ccc(NC(C)=O)cc3)c2)cc1 [Compound 5g, (E)-N-(4–(3-(3-((4-acetamidobenzyl)amino)phenyl)-3-oxoprop-1-en-1-yl)phenyl) acetamide]",GI50,RXF 393; RXF 393,11.3 µM
same,inhibition at 10 µM,"RXF 393; RXF 393, read-out: percent growth inhibition",158%
same,inhibition at 10 µM,SK-MEL-2,28.3%
same,GI50,786-0; 786-0,13.7 µM
same,inhibition at 10 µM,"786-0; 786-0, read-out: percent growth inhibition",144%
same,GI50,MALME-3M,7.11 µM
same,inhibition at 10 µM,MALME-3M; [2],57.5%
same,GI50,SF-295; SF-295,14 µM
same,inhibition at 10 µM,"SF-295; SF-295, read-out: percent growth inhibition",51.8%
same,GI50,BT-549; BT-549,10.4 µM
same,inhibition at 10 µM,"BT-549; BT-549, read-out: percent growth inhibition",63.7%
same,GI50,HOP-62; HOP-62,14.5 µM
same,inhibition at 10 µM,"HOP-62; HOP-62, read-out: percent growth inhibition",35.3%
same,GI50,A498; A498,14.2 µM
same,inhibition at 10 µM,"A498; A498, read-out: percent growth inhibition",16.6%
same,GI50,OVCAR-4; OVCAR-4,14 µM
same,inhibition at 10 µM,"OVCAR-4; OVCAR-4, read-out: percent growth inhibition",38.7%
same,GI50,SK-MEL-5; SK-MEL-5,12 µM
same,inhibition at 10 µM,"SK-MEL-5; SK-MEL-5, read-out: percent growth inhibition",99.6%
same,GI50,A549/ATCC; A549,15.8 µM
same,inhibition at 10 µM,"A549/ATCC; A549, read-out: percent growth inhibition",10.9%
same,GI50,K-562; K562,2.93 µM
same,inhibition at 10 µM,"K-562; K562, read-out: percent growth inhibition",100%
same,GI50,HCT-15; HCT-15,3.13 µM
same,inhibition at 10 µM,"HCT-15; HCT-15, read-out: percent growth inhibition",144%
same,GI50,IGROV1; IGROV-1,5.59 µM
same,inhibition at 10 µM,"IGROV1; IGROV-1, read-out: percent growth inhibition",56.3%
same,GI50,SF-268; SF-268,18.4 µM
same,inhibition at 10 µM,"SF-268; SF-268, read-out: percent growth inhibition",78.7%
same,GI50,SF-539; SF-539,12.2 µM
same,inhibition at 10 µM,"SF-539; SF-539, read-out: percent growth inhibition",167%
same,GI50,NCI/ADR-RES,16.5 µM
same,inhibition at 10 µM,NCI/ADR-RES; [2],88.2%
same,GI50,OVCAR-3; OVCAR-3,6.09 µM
same,inhibition at 10 µM,"OVCAR-3; OVCAR-3, read-out: percent growth inhibition",118%
same,GI50,CCRF-CEM,4.52 µM
same,inhibition at 10 µM,CCRF-CEM; [2],116%
same,GI50,OVCAR-5; OVCAR-5,12.3 µM
same,inhibition at 10 µM,"OVCAR-5; OVCAR-5, read-out: percent growth inhibition",45.2%
same,GI50,HCC-2998; HCC 2998,14.8 µM
same,inhibition at 10 µM,"HCC-2998; HCC 2998, read-out: percent growth inhibition",137%
same,GI50,MDA-MB-435; MDA-MB-435,10.3 µM
same,inhibition at 10 µM,"MDA-MB-435; MDA-MB-435, read-out: percent growth inhibition",39%
same,GI50,UACC-62; UACC-62,8.03 µM
same,inhibition at 10 µM,"UACC-62; UACC-62, read-out: percent growth inhibition",74.2%
same,GI50,HOP-92; HOP-92,11.8 µM
same,inhibition at 10 µM,"HOP-92; HOP-92, read-out: percent growth inhibition",26.9%
same,GI50,COLO 205; COLO 205,16 µM
same,inhibition at 10 µM,"COLO 205; COLO 205, read-out: percent growth inhibition",30.7%
same,GI50,NCI-H460; NCI-H460,6.29 µM
same,inhibition at 10 µM,"NCI-H460; NCI-H460, read-out: percent growth inhibition",136%
same,GI50,HT29; HT-29,5.75 µM
same,inhibition at 10 µM,"HT29; HT-29, read-out: percent growth inhibition",164%
same,GI50,"[1]; Homo sapiens, 60 cell, read-out: Full panel GI50 mean",9.52 µM
same,Full panel Mean GI %,"[1]; mean over NCI-60 panel, single dose 10 µM",87.48%
same,GI50,CAKI-1; CAKI-1,12.2 µM
same,inhibition at 10 µM,"CAKI-1; CAKI-1, read-out: percent growth inhibition",54.9%
same,GI50,DU-145; DU-145,11.8 µM
same,inhibition at 10 µM,"DU-145; DU-145, read-out: percent growth inhibition",61.7%
same,GI50,"HCT-116; HCT-116, HCT-116, five-dose screening",1.95 µM
same,inhibition at 10 µM,"HCT-116; HCT-116, read-out: percent growth inhibition",190%
same,GI50,HS 578 T,10.6 µM
same,inhibition at 10 µM,HS 578 T; [2],32%
same,GI50,MCF7; MCF7,2.88 µM
same,inhibition at 10 µM,"MCF7; MCF7, read-out: percent growth inhibition",107%
same,GI50,SR,2.43 µM
same,GI50,NCI-H226; NCI-H226,12.9 µM
same,inhibition at 10 µM,"NCI-H226; NCI-H226, read-out: percent growth inhibition",126%
same,GI50,SNB-75; SNB-75,4.87 µM
same,inhibition at 10 µM,"SNB-75; SNB-75, read-out: percent growth inhibition",17%
same,GI50,T-47D,7.77 µM
same,inhibition at 10 µM,T-47D; [2],46.4%
same,GI50,LOX IMVI,1.9 µM
same,inhibition at 10 µM,LOX IMVI; [2],191%
same,GI50,SNB-19; SNB-19,7 µM
same,inhibition at 10 µM,"SNB-19; SNB-19, read-out: percent growth inhibition",95.4%
same,GI50,ACHN,5.1 µM
same,inhibition at 10 µM,ACHN; [2],105%
same,GI50,NCI-H522; NCI-H522,6.54 µM
same,inhibition at 10 µM,"NCI-H522; NCI-H522, read-out: percent growth inhibition",159%
same,GI50,NCI-H322M,13.8 µM
same,inhibition at 10 µM,NCI-H322M; [2],28.7%
